Entries after “also recorded” stand apart in the source; their conditions may differ.
Assays:
[1] = target: T1, recombinant human MAO-A (Homo sapiens, UniProt P21397); experiment: hMAO-A inhibition, spectrophotometric assay; format: biochemical; settings: for inhibition at 10 µM: single dose concentration of 10 µM
T1 sequence (P21397 1-527): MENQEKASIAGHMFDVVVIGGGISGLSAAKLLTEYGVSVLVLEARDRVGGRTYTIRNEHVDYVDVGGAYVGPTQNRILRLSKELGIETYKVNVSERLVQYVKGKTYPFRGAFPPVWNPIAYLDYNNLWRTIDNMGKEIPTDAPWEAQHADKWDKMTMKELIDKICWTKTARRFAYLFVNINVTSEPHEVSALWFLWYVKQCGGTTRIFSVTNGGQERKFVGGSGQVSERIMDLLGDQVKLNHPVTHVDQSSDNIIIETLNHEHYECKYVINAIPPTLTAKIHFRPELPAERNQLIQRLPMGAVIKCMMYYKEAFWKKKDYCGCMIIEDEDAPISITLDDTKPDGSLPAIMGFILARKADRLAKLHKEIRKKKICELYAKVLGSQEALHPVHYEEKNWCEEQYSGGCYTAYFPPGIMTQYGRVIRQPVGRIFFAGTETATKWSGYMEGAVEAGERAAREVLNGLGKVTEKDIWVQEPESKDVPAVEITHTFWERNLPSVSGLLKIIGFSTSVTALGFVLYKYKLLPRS
Source text: Two different MAO isoforms are known.

[2] = system: BV2 cells; experiment: BV2 cell viability, WST-1 assay; format: cell-based; settings: doses of 1, 10, 30 and 50 µM
Source text: Promising antineurodegenrative candidate molecules should not impair viability of CNS cells. Microglia are critical cells within CNS involved in microglia–neuron communications and are responsible for maintenance of brain integrity and health[61]^,[62]. However, under neuroinflammatory conditions, aberrant activation of microglia contributes to neurodegeneration and disease progression. In this regard, suppression of the abnormal activation while maintenance of viability of microglia is important considerations. […] The viability assay was carried out using the water-soluble tetrazolium reagent WST-1 which eliminates the formazan dissolution step requested in case of MTT[65] employing multiple doses of 1, 10, 30, and 50 µM. […] In lieu of this, it might be inferred that these compounds showing effective inhibition of MAO-B activity and triggering no impairment of microglia viability are good candidates might be advanced for further evaluation towards the development of multifunctional molecules for neurodegenerative diseases such as PD.
The impact of the compounds on the viability of cells was performed by the well-known WST-1 assay method as described in the Supporting information.

[3] = system: LPS-treated BV2 cells (NO production); experiment: LPS-induced production of nitric oxide in BV2 cells; format: cell-based; settings: different concentrations, Figure 3(A)
Protocol: (§1) Neuroinflammation is a crucial component in neurodegenerative diseases. Chronic activation of microglia, which are the brain-resident form of macrophages, results in sustained production of several proinflammatory mediators including glial NO, PGE2, and others molecules that are implicated in multiple neurodegenerative diseases. […] In this regard, LPS-treated BV2 cells were incubated with or without different concentrations of each compound. […] Based on collective results of antineuroinflammatory activity evaluation, in conjugation with above-conducted MAO inhibitions’ assays, compound 1p might be claimed as a promising lead compound eliciting polypharmacological effects combining inhibition of neuroinflammation and MAO-B activity; both processes are crucial components of neurodegenerative diseases such as PD.
(§2) The abilities of compounds to inhibit the induced production of NO and PGE2 were assessed by well-known protocol as indicated in the Supporting information.

[4] = system: LPS-treated BV2 cells (PGE2 production); experiment: LPS-induced production of PGE2 in BV2 cells; format: cell-based; settings: different concentrations, Figure 3(B)
Protocol: as §1, §2

[5] = target: T2, MAO-B (Homo sapiens, UniProt P27338); experiment: MAO-B inhibition kinetic study (Michaelis–Menten, Lineweaver–Burk); format: biochemical; settings: for Type of MAO-B inhibition: Lineweaver–Burk plots; for Ki: benzylamine as substrate
T2 sequence (P27338 1-520): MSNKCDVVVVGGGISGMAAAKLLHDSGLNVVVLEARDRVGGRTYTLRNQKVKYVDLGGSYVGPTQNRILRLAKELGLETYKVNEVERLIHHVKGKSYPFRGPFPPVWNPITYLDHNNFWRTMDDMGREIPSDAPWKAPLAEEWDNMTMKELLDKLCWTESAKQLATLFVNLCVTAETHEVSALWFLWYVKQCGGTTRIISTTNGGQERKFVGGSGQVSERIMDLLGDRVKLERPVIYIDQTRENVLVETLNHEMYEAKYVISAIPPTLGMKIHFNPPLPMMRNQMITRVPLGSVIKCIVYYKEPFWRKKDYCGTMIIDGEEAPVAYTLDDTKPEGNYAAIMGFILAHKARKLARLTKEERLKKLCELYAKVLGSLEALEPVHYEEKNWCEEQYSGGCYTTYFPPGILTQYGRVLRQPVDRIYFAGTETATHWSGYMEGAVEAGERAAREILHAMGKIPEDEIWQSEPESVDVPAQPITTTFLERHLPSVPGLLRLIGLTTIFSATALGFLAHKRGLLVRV
Protocol: (§3) To get insights into MAO-B inhibition reaction by compounds 1p and 1y, a kinetic study and reversibility testing were conducted. As illustrated in Figure 4(A,B), Michaelis–Menten graphs were constructed using different concentrations of compounds 1p and 1y employing different concentrations benzylamine as a substrate.
(§4) Kinetics of the inhibition of MAO-B and testing of reversibility were conducted according to literature-reported protocols[59] as indicated in the Supporting information.

[6] = target: T2, MAO-B; experiment: MAO-B inhibition reversibility testing (washing); format: biochemical; settings: enzymatic activity after washing
Protocol: as §3, §4

[7] = target: T2, MAO-B; experiment: hMAO-B inhibition, spectrophotometric assay; settings: for Selectivity index for inhibition of MAO-B: IC50 MAO-A divided by IC50 MAO-B; for inhibition at 10 µM: read-out: MAO-B % Inhibition, single dose concentration of 10 µM
Protocol: The inhibitory activities of the compounds against hMAO-A and hMAO-B enzymes were evaluated referring to a previously described method (Supporting information)[49].

| SMILES | IC50 [1] | inhibition at 10 µM [1] | Impact on viability of BV2 cells [2] | Effect on LPS-induced NO production by BV2 cells [3] | Effect on LPS-induced PGE2 production by BV2 cells [4] | Type of MAO-B inhibition [5] | Ki [5] | Reversibility of MAO-B inhibition [6] | IC50 [7] | Selectivity index for inhibition of MAO-B [7] | inhibition at 10 µM [7] |
| --- | --- | --- | --- | --- | --- | --- | --- | --- | --- | --- | --- |
| COc1ccc(/C=C2\Oc3cc(O)ccc3C2=O)c(OC)c1OC [Compound 1p] | > 100000 nM | -1.53% | none of the tested concentrations | significant inhibition of NO production | effectively suppressed the induced-PGE2 production | competitive inhibitors; also recorded: Competitive inhibition | 36.5 nM | washing restored the enzymatic activity | 171 nM | >583 | 96.7% |
| COc1cccc(/C=C2\Oc3cc(OC)ccc3C2=O)c1 [Compound 1y] | > 100000 nM | 3.26% | none of the tested concentrations |  |  | competitive inhibitors; also recorded: Competitive inhibition | 29.1 nM | washing restored the enzymatic activity | 201 nM | >496 | 99.2% |
| O=C1/C(=C/c2ccc(O)cc2)Oc2cc(O)ccc21 [Hispidol, hispidol, reference compound] | 5280 nM | 69.3% | cytotoxic effects | significant inhibition of NO production | effectively suppressed the induced-PGE2 production |  |  |  |  |  |  |

From PMC8881063 (Journal of Enzyme Inhibition and Medicinal Chemistry, 2022)
